Laboratory results: patent publication US10253039B2, “Inhibitors of bacterial DNA gyrase with efficacy against gram-negative bacteria” (priority 2014, dated 2019)
Converted amounts (≈) assume the structure as drawn. Like-named read-outs stand apart in the source and are kept apart here.

Legend:
Type in all cases: cell-based
E. coli BW25113 = test: MIC, microdilution in 96-well plates; details: Escherichia coli, read-out: MIC
Summary of the method: (§1)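 Using LB medium and a 1:10000 starting inoculum, compounds were diluted stepwise by half in triplicate, DMSO serving as vehicle control. Shaking incubation ran 16-18 hours at 37° C. before wells were visually checked for turbidity to assign MIC.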

Edwardsiella tarda = test: MIC, microdilution in 96-well plates
Summary of the method: as §1

[1] = test system: Staphylococcus epidermidis; test: MIC, 20-strain panel
Summary of the method: as §1

Shigella flexneri = test: MIC, 20-strain panel
Summary of the method: as §1

[2] = test system: Staphylococcus saprophyticus subsp. saprophyticus; test: MIC, 20-strain panel
Summary of the method: as §1

[3] = test system: Salmonella enterica subsp. enterica typhimurium; test: MIC, 20-strain panel
Summary of the method: as §1

Streptococcus agalactiae = test: MIC, 20-strain panel
Summary of the method: as §1

[4] = test system: Klebsiella pneumoniae subsp. pneumoniae; test: MIC, 20-strain panel
Summary of the method: as §1

Streptococcus pyogenes = test: MIC, 20-strain panel
Summary of the method: as §1

E. coli JW5503 (deltolC) = test: MIC, 20-strain panel; details: Escherichia coli
Summary of the method: as §1

[5] = test system: Staphylococcus aureus subsp. aureus; test: MIC, 20-strain panel; details: read-out: MIC
Summary of the method: as §1

E. coli MG1655 = test: MIC, 20-strain panel; details: Escherichia coli, read-out: MIC
Summary of the method: as §1

[6] = F: Salmonella enterica subsp. enterica Typhimurium
[7] = E: Klebsiella pneumoniae subsp. pneumoniae
[8] = H: Staphylococcus aureus subsp. aureus
[9] = Salmonella enterica subsp. enterica Typhimurium
[10] = Klebsiella pneumoniae subsp. pneumoniae
[11] = Staphylococcus aureus subsp. aureus

SMILES	MIC (E. coli BW25113; BW25113, B: E. coli BW25113) [µg/mL]	MIC (Edwardsiella tarda; D: Edwardsiella tarda) [µg/mL]	MIC [1] [µg/mL]	MIC (Shigella flexneri; G: Shigella flexneri) [µg/mL]	MIC [2] [µg/mL]	MIC [3, 6] [µg/mL]	MIC (Streptococcus agalactiae) [µg/mL]	MIC [4, 7] [µg/mL]	MIC (Streptococcus pyogenes) [µg/mL]	MIC (E. coli JW5503 (deltolC); C: E. coli JW5503 (deltolC)) [µg/mL]	MIC [5, 8] [µg/mL]	MIC (E. coli MG1655; MG1655, A: E. coli MG1655) [µg/mL]	MIC (E. coli BW25113; BW25113, E. coli BW25113) [µg/mL]	MIC (Edwardsiella tarda) [µg/mL]	MIC (Shigella flexneri) [µg/mL]	MIC [3, 9] [µg/mL]	MIC [4, 10] [µg/mL]	MIC (E. coli JW5503 (deltolC); E. coli JW5503 (deltolC)) [µg/mL]	MIC [5, 11] [µg/mL]	MIC (E. coli MG1655; MG1655, E. coli MG1655) [µg/mL]
Cc1c(S(=O)(=O)N[C@@H]2CCN(Cc3ccc(OC(C)C)cc3)C2)sc2ccc(Cl)cc12 [Compound 83]	> 8	> 8	8 (≈ 16.7 µM)	> 8	> 8	> 8	> 8	> 8	8 (≈ 16.7 µM)	8 (≈ 16.7 µM)	~8 (≈ 16.7 µM)	> 8	–	–	–	–	–	–	–	–
N#Cc1cccc(S(=O)(=O)N[C@@H]2CCN(Cc3ccc(SC(F)(F)F)cc3)C2)c1 [Compound 20]	> 8	> 8	> 8	> 8	> 8	> 8	> 8	> 8	> 8	8 (≈ 18.1 µM)	> 8	> 8	–	–	–	–	–	–	–	–
N#Cc1cc(S(=O)(=O)N[C@@H]2CCN(Cc3ccc(OC4CC4)cc3)C2)ccc1Cl [Compound 119]	> 8	> 8	> 8	> 8	> 8	> 8	> 8	> 8	> 8	> 8	> 8	> 8	–	–	–	–	–	–	–	–
Cc1c(S(=O)(=O)N[C@@H]2CCN(Cc3ccc(-c4ccccc4)cc3)C2)sc2ccc(Cl)cc12 [Compound 82]	> 8	> 8	> 8	> 8	> 8	> 8	> 8	> 8	> 8	> 8	> 8	> 8	–	–	–	–	–	–	–	–
CC(C)Oc1ccc(CN2CC[C@@H](NS(=O)(=O)c3cccc4cccnc34)C2)cc1 [Compound 84]	> 8	> 8	> 8	> 8	> 8	> 8	> 8	> 8	> 8	1 (≈ 2.35 µM)	> 8	> 8	–	–	–	–	–	–	–	–
O=S(=O)(N[C@@H]1CCN(Cc2ccc(-c3ccccc3Cl)cc2)C1)c1cccc(OC(F)(F)F)c1 [Compound 75]	> 8	> 8	> 8	> 8	> 8	> 8	> 8	> 8	~8 (≈ 15.7 µM)	~8 (≈ 15.7 µM)	> 8	> 8	–	–	–	–	–	–	–	–
O=C1CCCN1c1ccc(CN2CC[C@@H](NS(=O)(=O)c3cccc(C(F)(F)F)c3)C2)cc1 [Compound 99]	> 8	> 8	> 8	> 8	> 8	> 8	> 8	> 8	> 8	2 (≈ 4.28 µM)	> 8	> 8	–	–	–	–	–	–	–	–
CC(C)Oc1ccc(CN2CC[C@@H](NS(=O)(=O)c3cccnc3)C2)cc1 [Compound 167]	–	–	> 8	–	> 8	–	> 8	–	> 8	–	–	–	> 8	> 8	> 8	> 8	> 8	> 8	> 8	> 8
Cc1ccncc1S(=O)(=O)N[C@@H]1CCN(Cc2ccc(OC(C)C)cc2)C1 [Compound 121]	> 8	> 8	> 8	> 8	> 8	> 8	> 8	> 8	> 8	~8 (≈ 20.5 µM)	> 8	> 8	–	–	–	–	–	–	–	–
O=S(=O)(N[C@@H]1CCN(Cc2ccc(OC3CC3)cc2)C1)c1ncc[nH]1 [Compound 130]	–	–	> 8	–	> 8	–	> 8	–	> 8	–	–	–	> 8	> 8	> 8	~8 (≈ 22.1 µM)	> 8	~8 (≈ 22.1 µM)	> 8	> 8
Cc1ccc(C#N)cc1S(=O)(=O)N[C@@H]1CCN(Cc2ccc(OC(C)C)cc2)C1 [Compound 112]	> 8	> 8	> 8	> 8	> 8	4 (≈ 9.67 µM)	> 8	> 8	> 8	0.25 (≈ 0.605 µM)	> 8	> 8	–	–	–	–	–	–	–	–
O=S(=O)(N[C@@H]1CCN(Cc2ccc(OC3CCOCC3)cc2)C1)c1cccc(OC(F)(F)F)c1 [Compound 39]	> 8	> 8	> 8	> 8	> 8	> 8	> 8	> 8	> 8	1 (≈ 2 µM)	> 8	> 8	–	–	–	–	–	–	–	–
CC(=O)c1cc(S(=O)(=O)N[C@@H]2CCN(Cc3ccc(OC4CC4)cc3)C2)ccc1C [Compound 133]	–	–	> 8	–	> 8	–	> 8	–	> 8	–	–	–	> 8	> 8	> 8	> 8	> 8	> 8	> 8	> 8
O=S(=O)(N[C@@H]1CCN(Cc2ccc(-n3ccnn3)cc2)C1)c1cccc(OC(F)(F)F)c1 [Compound 33]	> 8	> 8	> 8	> 8	> 8	> 8	> 8	> 8	> 8	> 8	> 8	> 8	–	–	–	–	–	–	–	–
CC(=O)c1cccc(S(=O)(=O)N[C@@H]2CCN(Cc3ccc(-c4ccccc4)cc3)C2)c1 [Compound 44]	> 8	> 8	> 8	> 8	> 8	8 (≈ 18.4 µM)	> 8	> 8	> 8	0.25 (≈ 0.575 µM)	> 8	> 8	–	–	–	–	–	–	–	–
O=S(=O)(N[C@@H]1CCN(Cc2ccc(OC3CCC3)cc2)C1)c1cccc(OC(F)(F)F)c1 [Compound 177]	–	–	> 8	–	> 8	–	> 8	–	> 8	–	–	–	> 8	> 8	> 8	> 8	> 8	2 (≈ 4.25 µM)	> 8	> 8
